Laboratory results: US6623933B1 (priority 1999, dated 2003)
“Also recorded” adds a separate entry of the source. Structures can show the parent of a compound that is named as a salt. Where two headings read alike, the source gives them in different places.

Tests used:
[1] = molecular target: T1, NR1100+NR2A NMDA receptor (Rattus norvegicus, UniProt P35439+Q00959); assay: NMDA-induced current (INMDA), Xenopus oocytes, Example 2; assay type: cell-based; conditions: 100 μM NMDA, 100 μM steroid
T1 construct: expressed in transfected cells; host or cells: Xenopus oocytes co-injected with NR1100 and NR2A cRNA
T1 sequence (Q00959 23-1464, other chains not shown): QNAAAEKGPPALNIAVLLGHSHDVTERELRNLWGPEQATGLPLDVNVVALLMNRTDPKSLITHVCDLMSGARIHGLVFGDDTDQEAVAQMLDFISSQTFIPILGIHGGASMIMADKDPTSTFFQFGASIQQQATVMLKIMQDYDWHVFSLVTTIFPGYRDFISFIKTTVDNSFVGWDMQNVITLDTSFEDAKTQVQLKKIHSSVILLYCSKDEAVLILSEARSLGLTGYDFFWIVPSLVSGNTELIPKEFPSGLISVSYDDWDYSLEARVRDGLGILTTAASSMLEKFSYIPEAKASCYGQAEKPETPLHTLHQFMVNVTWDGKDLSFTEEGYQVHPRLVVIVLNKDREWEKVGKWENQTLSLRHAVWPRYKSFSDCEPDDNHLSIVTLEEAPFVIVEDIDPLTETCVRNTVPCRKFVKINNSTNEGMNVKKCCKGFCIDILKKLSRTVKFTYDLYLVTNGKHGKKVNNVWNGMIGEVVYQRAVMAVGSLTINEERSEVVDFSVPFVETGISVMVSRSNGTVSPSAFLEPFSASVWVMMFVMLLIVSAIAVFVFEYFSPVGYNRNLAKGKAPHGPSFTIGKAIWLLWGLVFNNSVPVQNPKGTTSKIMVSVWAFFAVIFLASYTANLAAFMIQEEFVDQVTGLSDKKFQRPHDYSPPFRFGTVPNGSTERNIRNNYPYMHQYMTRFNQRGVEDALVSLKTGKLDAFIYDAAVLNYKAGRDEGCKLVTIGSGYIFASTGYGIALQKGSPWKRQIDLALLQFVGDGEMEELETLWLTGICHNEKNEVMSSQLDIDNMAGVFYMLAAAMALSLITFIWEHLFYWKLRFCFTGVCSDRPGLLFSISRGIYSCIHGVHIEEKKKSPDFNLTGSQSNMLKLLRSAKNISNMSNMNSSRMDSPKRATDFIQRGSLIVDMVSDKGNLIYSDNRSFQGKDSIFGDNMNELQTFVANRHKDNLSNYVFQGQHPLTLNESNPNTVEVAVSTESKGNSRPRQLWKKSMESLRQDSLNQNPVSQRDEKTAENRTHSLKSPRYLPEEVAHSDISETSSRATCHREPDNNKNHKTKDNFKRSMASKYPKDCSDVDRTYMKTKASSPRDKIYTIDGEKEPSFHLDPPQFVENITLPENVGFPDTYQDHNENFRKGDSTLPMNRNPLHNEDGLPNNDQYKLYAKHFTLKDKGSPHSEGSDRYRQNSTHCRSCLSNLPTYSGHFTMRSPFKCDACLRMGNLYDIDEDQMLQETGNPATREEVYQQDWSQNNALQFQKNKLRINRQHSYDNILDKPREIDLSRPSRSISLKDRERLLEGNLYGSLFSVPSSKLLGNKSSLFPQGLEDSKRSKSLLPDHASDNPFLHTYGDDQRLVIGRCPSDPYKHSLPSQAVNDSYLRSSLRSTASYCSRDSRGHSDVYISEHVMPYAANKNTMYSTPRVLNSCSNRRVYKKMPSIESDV
Method: NR1100 (NR1G) and NR2A clones were kindly provided by Dr. R. S. Zukin (Albert Einstein College of Medicine, New York, N.Y.) and Dr. S. Nakanishi (Faculty of Medicine, Kyoto University, Kyoto, Japan), respectively. mRNA was prepared through in vitro transcription of NR1100 and NR2A cDNAs using the mMessage mMachine kit (Ambion, Tex.). On the day following isolation, batches of 20-40 selected Xenopus oocytes were injected with 50 nl of prepared RNA solution (0.5 ng NR1100 and 5 ng of NR2A mRNA/oocyte). Oocytes were maintained in glass petri dishes containing Barth's solution (84 mM NaCl, 1 mM KCl, 2.4 mM NaHCO3, 0.82 mM MgSO4, 0.41 mM CaCl2, 0.33 mM Ca(NO3)2, 2.5 mM pyruvate, 0.1 mg/ml gentamycin, 7.5 mM Tris/HCl, pH 7.4) in an incubator at 18° C. Oocytes were used for electrophysiological experiments 4-10 days after injection.
Recordings from oocytes were obtained using the two electrode voltage-clamp mode with an Axoclamp-2A amplifier (Axon Instruments). The resistance of microelectrodes, pulled from glass capillaries and filled with 3 M KCl solution, was 2.5-3.5 M. Membrane potential was clamped at −70 mV. Drugs were applied by a gravity-driven external perfusion system. Drug application and data acquisition were carried out with custom-written software implemented in the SuperScopeII programming language (GW Instruments, Somerville, Mass.).
The degree of modulation of NMDA-induced Ca^2+ influx, cell death, and currents is expressed as the percent change, defined as (I′/I−1)×100%, where I and I′ are the NMDA-induced responses in the absence and presence of modulator, respectively. All data are expressed as mean±standard error of the mean. Statistical significance was evaluated using 95% confidence limits unless otherwise noted.

[2] = molecular target: T1, NR1100+NR2A NMDA receptor; assay: NMDA-induced currents, Xenopus oocytes, Example 1; assay type: cell-based; conditions: for effect on NMDA induced current: NR1100+NR2A, sulfate
Description: (§1) Plasmids were obtained from the following individuals: Dr. Suzanne Zukin (Albert Einstein College of Medicine, Bronx, N.Y.), NR1100; Dr. Shigetada Nakanishi (Kyoto University Faculty of Medicine, Kyoto, Japan), NR2A; Dr. Stephen Heinemann (Salk Institute, San Diego, Calif.), GluR1 (flop), GluR3 (flop), and GluR6. Plasmids were linearized with BamH1 (NR1100), XhoI (NR2A, GluR1, GluR3) or XbaI (GluR6) prior to in vitro transcription with T3 (GluR1, GluR3, GluR6) or T7 (NR1100, NR2A) RNA polymerase using the Message Machine kit (Ambion, Austin, Tex.). […] RNA solutions (50-70 nl) were injected into oocytes for delivery of NR1100 (5 ng), NR1100:NR2A (1:10 ng), GluR1 (5 ng). GluR3 (5 ng), or GluR6 (20 ng). Oocytes were incubated in ND96 at 18-20° C. for 3-7 days prior to electrophysiological recording.
(§2) Steroid solutions were prepared as 70-100 mM frozen stocks in dimethyl sulfoxide (DMSO). The final DMSO concentration of all recording solutions was between 0.1% to 0.5% and was constant within an experiment.
(§3) Perfusion control and data acquisition were carried out using an automated oocyte electrophysiology workstation that was developed for the rapid collection of concentration-response data and real-time waveform analysis (Yaghoubi et al., Soc. Neurosci. Abstr. 20: 1109 (1995)). This system is implemented on a Macintosh IIci computer (Apple Computer, Cupertino, Calif.) equipped with MacA-DIOS II data acquisition and control hardware (GW Instruments, Somerville, Mass.). Drug application is controlled by the computer through a series of valves, using custom-written software based on the SuperScope II development environment, improving the efficiency and reproducibility of data collection. Experiments were carried out using an Axoclamp-2A voltage clamp amplifier (Axon Instruments, Foster City, Calif.) in two-electrode voltage clamp mode. Intracellular microelectrodes (1-3 MΩ) were filled with 3 M KCl. […] Membrane potential was clamped at −60 to −70 mV and stepped to −100 mV at the start of data acquisition unless otherwise stated. […] Current and voltage recordings were digitized at 100 Hz for analysis. GluR6 injected oocytes were treated for 10 min with 10 μg/ml concanavalin A to prevent fast desensitization.
(§4) Results are expressed as mean±S.E.M. Statistical comparisons were made using Student's t-test.

[3] = molecular target: T2, GluR6 kainate receptor (Rattus norvegicus, UniProt P42260); assay: Kainate-induced currents, Xenopus oocytes injected with GluR6 cRNA; assay type: cell-based
T2 construct: expressed in transfected cells; host or cells: Xenopus oocytes injected with GluR6 cRNA (concanavalin A treated)
T2 sequence (P42260 32-908): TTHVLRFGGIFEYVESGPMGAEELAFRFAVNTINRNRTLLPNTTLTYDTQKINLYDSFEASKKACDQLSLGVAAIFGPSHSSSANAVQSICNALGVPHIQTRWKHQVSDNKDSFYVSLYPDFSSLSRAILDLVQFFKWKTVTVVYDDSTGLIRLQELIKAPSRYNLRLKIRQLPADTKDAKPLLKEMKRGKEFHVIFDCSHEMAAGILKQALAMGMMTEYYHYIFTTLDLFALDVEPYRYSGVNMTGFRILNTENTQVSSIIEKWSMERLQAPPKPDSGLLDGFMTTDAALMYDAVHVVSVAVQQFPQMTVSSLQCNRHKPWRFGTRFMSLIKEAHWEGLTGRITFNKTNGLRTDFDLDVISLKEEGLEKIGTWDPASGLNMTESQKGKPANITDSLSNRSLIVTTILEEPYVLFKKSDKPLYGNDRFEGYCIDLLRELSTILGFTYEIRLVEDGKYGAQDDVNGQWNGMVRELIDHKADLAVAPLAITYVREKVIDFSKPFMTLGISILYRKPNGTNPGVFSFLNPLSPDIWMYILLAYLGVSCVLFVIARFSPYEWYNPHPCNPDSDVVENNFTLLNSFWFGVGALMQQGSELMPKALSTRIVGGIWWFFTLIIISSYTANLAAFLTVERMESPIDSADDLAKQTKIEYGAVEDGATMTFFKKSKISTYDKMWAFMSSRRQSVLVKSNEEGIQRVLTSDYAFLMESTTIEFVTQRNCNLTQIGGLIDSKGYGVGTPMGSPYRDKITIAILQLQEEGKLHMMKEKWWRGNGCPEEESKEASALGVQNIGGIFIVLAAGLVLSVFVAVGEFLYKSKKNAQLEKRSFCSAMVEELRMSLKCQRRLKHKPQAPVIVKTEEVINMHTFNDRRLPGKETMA
Description: as §1, §2, §3, §4

[4] = molecular target: T3, GluR3 AMPA receptor (Rattus norvegicus, UniProt P19492); assay: Kainate-induced currents, Xenopus oocytes injected with GluR3 cRNA; assay type: cell-based
T3 construct: expressed in transfected cells; host or cells: Xenopus oocytes injected with GluR3 cRNA
T3 sequence (P19492 23-888): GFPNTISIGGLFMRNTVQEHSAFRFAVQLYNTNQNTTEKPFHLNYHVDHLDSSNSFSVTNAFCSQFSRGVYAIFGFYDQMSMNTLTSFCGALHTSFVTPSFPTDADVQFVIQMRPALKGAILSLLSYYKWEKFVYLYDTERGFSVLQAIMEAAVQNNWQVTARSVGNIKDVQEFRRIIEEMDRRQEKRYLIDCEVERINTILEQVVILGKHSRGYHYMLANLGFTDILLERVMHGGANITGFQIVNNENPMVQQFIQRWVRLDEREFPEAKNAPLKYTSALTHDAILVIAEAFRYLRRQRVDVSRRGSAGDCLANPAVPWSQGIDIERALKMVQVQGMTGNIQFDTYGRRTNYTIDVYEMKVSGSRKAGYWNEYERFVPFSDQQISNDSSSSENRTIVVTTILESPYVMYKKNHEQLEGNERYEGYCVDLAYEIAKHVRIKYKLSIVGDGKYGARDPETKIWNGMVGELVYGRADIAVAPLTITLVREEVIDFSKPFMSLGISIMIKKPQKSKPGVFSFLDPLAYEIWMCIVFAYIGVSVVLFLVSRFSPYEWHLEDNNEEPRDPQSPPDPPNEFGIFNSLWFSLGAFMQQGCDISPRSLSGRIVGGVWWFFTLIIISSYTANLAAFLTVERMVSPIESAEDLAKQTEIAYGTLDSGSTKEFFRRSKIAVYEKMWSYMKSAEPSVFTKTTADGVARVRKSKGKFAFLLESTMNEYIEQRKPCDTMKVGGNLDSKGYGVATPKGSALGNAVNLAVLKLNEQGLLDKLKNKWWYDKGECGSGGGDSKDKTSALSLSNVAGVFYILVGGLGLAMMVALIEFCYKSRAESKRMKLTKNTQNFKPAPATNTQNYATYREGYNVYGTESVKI
Description: as §1, §2, §3, §4

[5] = molecular target: T4, GluR1 AMPA receptor (Rattus norvegicus, UniProt P19490); assay: Kainate-induced currents, Xenopus oocytes injected with GluR1 cRNA; assay type: cell-based
T4 construct: expressed in transfected cells; host or cells: Xenopus oocytes injected with GluR1 cRNA
T4 sequence (P19490 19-907): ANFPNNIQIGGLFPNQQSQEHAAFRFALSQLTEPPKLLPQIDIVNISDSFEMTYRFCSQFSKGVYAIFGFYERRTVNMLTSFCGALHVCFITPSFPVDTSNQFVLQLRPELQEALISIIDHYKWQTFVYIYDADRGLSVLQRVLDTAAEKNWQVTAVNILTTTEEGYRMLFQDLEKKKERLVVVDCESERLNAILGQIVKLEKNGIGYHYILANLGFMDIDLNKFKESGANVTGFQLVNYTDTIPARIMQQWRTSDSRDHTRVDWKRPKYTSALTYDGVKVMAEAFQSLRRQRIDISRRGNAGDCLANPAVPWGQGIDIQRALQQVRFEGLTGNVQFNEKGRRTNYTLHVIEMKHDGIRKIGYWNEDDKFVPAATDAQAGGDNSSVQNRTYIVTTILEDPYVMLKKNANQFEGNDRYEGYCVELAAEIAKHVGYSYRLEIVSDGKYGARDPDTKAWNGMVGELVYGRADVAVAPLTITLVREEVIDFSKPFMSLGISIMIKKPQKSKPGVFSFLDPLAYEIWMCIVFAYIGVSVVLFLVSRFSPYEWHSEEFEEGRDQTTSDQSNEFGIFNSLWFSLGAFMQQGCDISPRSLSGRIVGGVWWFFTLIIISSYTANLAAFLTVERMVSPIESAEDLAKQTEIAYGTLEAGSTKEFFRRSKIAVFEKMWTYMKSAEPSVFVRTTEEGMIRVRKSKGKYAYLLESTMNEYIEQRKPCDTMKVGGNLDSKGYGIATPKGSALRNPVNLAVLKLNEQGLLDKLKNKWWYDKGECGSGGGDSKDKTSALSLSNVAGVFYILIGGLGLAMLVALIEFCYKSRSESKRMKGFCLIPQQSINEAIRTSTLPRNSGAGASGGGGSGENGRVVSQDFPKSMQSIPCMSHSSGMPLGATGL
Description: as §1, §2, §3, §4

[6] = system: primary cultures of rat hippocampal neurons; assay: NMDA-induced neuronal death, trypan blue exclusion; assay type: cell-based; conditions: for inhibition of NMDA-induced neuronal death: acute 30 μM NMDA, steroid 100 μM (3α5β 50 μM); for exacerbation of NMDA-induced neuronal death: acute NMDA, steroid 100 μM (pregnenolone 20 μM)
Method: (§5) Principally neuronal cultures were prepared from hippocampal tissue of fetal Sprague-Dawley rats on day 18 of embryonic development, as previously described (Brewer et al., Brain Research 494: 65-74 (1989)). Briefly, hippocampal cells were dissociated by trituration in Ca^2+/Mg^2+-free Hank's basic salt solution (Gibco) supplemented with 4.2 mM bicarbonate, 1 mM sodium pyruvate, 20 mM HEPES, 3 mg/ml bovine serum albumin (BSA). Dissociated cells were then pelleted by centrifugation (500×g, 4 min). […] Cells were then plated onto poly-L-lysine-coated 24-well culture dishes (Nunclon) at a density of 15,000 cell/cm^2 and maintained in a humidified atmosphere containing 5% CO2/95% air at 37° C. After 48 h, nonneuronal cell division was inhibited by a 48 h exposure to 1 μM cytosine arabinoside. Cultures were subsequently maintained in serum-free DMEM plus defined components and were used for experiments 16 to 24 days after plating.
(§6) Steroids were dissolved in DMSO (0.5% final concentration), and all treatment media contained 0.5% DMSO. […] Following exposure, cultures were washed 3 times with medium from sister cultures (conditioned medium). After the final wash, steroid or vehicle was reintroduced. Drugs were added to cultures in 25 μl of conditioned medium to yield a final volume of 0.25 ml per well. Except where otherwise noted, final steroid concentration was 100 μM.
The ability of neurons to exclude trypan blue was used to quantitate cell viability (Dawson et al., Proc Natl Acad Sci USA 88: 6368-6371 (1991)). […] Cultures were then fixed with 4% paraformaldehyde in PBS for 30 min, at whichtime the fixative was replaced with PBS. The number of stained and unstained neurons were counted in 4 high-power fields per culture well, using an inverted phase contrast microscope under both bright field and phase contrast settings. Experiments were performed in triplicate, and all assessments were made with the experimenter blind to the treatment of each culture well. Percent cell death is expressed as follows: (number of trypan blue stained neurons)/(total number of neurons)×100%.
(§7) All data are expressed as mean±standard error of the mean. Statistical significance was evaluated using 95% confidence limits unless otherwise noted.

[7] = system: primary cultures of rat hippocampal neurons; assay: NMDA-induced increase in [Ca2+]i, Fluo-3 AM; assay type: cell-based; conditions: for reduction of NMDA-induced rise in [Ca2+]i: steroid 100 μM (3α5β 50 μM)
Method: as §5
DMSO was also added to controls to maintain a constant final DMSO concentration of […].
as §7

[8] = Precipitation in assay buffer / culture medium; assay type: physicochemical; conditions: 0.5% DMSO, above 50 μM (3α5β) and 20 μM (pregnenolone)
Method: Steroids were initially dissolved in 100% DMSO, then diluted into assay buffer at a final DMSO concentration of 0.5% and sonicated for 20 min. All other solutions also contained 0.5% DMSO. Except where otherwise noted, the final steroid concentration was 100 μM.
as §6

[9] = system: NMDA receptor (chick spinal cord neurons); conditions: Park-Chung et al. 1997, cited from earlier work
[10] = molecular target: T5, NR1100 NMDA receptor (Rattus norvegicus, UniProt P35439); assay: NMDA-induced currents, Xenopus oocytes injected with NR1100 cRNA only, Example 1; assay type: cell-based
T5 construct: expressed in transfected cells; host or cells: Xenopus oocytes injected with NR1100 cRNA only
Description: as §1, §2, §3, §4

CC(=O)C1CCC2C3CC=C4C[C@@H](OC(=O)CCC(=O)O)CC[C@]4(C)C3CC[C@]12C (stereo partly drawn) [PHS, pregnenolone hemisuccinate]
potentiation of INMDA [1]: more than doubling the response | Percentage change in NMDA response ([2]; NR1100 + NR2A, steroid 100 μM, 100 μM NMDA, −100 mV): +118 ± 16(16) % | Percentage change in kainate response [3]: −15 ± 2(3) % | inhibition of the response to kainate [3]: 15% | Percentage change in kainate response [4]: −72 ± 3(3) % | Percentage change in kainate response [5]: −71 ± 1(4) %

CC(=O)[C@H]1CC[C@H]2[C@@H]3CC[C@@H]4C[C@H](OC(=O)CCCC(=O)O)CC[C@]4(C)[C@H]3CC[C@]12C [3α5βHG, pregnanolone hemiglutarate]
inhibition of INMDA [1]: about equally effective in inhibiting INMDA | inhibition of NMDA-induced neuronal death [6]: 38±6% | reduction of NMDA-induced rise in [Ca2+]i ([7]; 5 μM NMDA): approximately 40%

CC(=O)[C@H]1CC[C@H]2[C@@H]3CC[C@@H]4C[C@H](O)CC[C@]4(C)[C@H]3CC[C@]12C [3α5β, pregnanolone]
inhibition of INMDA [1]: inactive | precipitation at higher concentrations [8]: higher concentrations tended to precipitate | inhibition of NMDA-induced neuronal death [6]: do not exhibit significant neuroprotective activity | reduction of NMDA-induced rise in [Ca2+]i ([7]; 5 μM NMDA): no significant effect

CC(=O)[C@H]1CC[C@H]2[C@@H]3CC=C4C[C@@H](O)CC[C@]4(C)[C@H]3CC[C@]12C [pregnenolone]
potentiation of INMDA [1]: 5±2% | precipitation at higher concentrations [8]: higher concentrations tended to precipitate | exacerbation of NMDA-induced neuronal death [6]: ineffective | potentiation of NMDA-induced Ca2+ accumulation [7]: without effect

CC(=O)[C@H]1CC[C@H]2[C@@H]3CC=C4C[C@@H](OC=O)CC[C@]4(C)[C@H]3CC[C@]12C [PF, pregnenolone formate]
potentiation of INMDA [1]: little activity | exacerbation of NMDA-induced neuronal death [6]: ineffective | potentiation of NMDA-induced Ca2+ accumulation ([7]; 5 μM NMDA, steroid 100 μM (pregnenolone 20 μM)): without effect

CC(=O)[C@H]1CC[C@H]2[C@@H]3CC[C@H]4C[C@@H](OS(=O)(=O)O)CC[C@]4(C)[C@H]3CC[C@]12C [3β5αS, 3β-hydroxy-5α-pregnan-20-one sulfate]
modulation of NMDA-induced current ([9]; sulfate): weakly potentiates | effect on NMDA induced current [2]: 33±13% | exacerbation of NMDA-induced neuronal death [6]: 40±7%

CC(=O)[C@H]1CC[C@H]2[C@@H]3CC[C@H]4C[C@@H](OS(=O)(=O)O)CC[C@]4(C)[C@H]3CC[C@]12C [3α5αS, 3α-hydroxy-5α-pregnan-20-one sulfate]
modulation of NMDA-induced current ([9]; sulfate): weaker inhibitor | effect on NMDA induced current [2]: 8±8% | inhibition of NMDA-induced neuronal death [6]: 47±12%

CC(=O)[C@H]1CC[C@H]2[C@@H]3CC=C4C[C@@H](OC(=O)C(=O)O)CC[C@]4(C)[C@H]3CC[C@]12C [PHO, pregnenolone hemioxylate]
potentiation of INMDA [1]: little activity; also recorded: does not enhance the NMDA-induced current | exacerbation of NMDA-induced neuronal death [6]: 48±12% | potentiation of NMDA-induced Ca2+ accumulation [7]: 62±17%

CC(=O)[C@H]1CC[C@H]2[C@@H]3CC[C@@H]4C[C@H](OC(=O)C(=O)O)CC[C@]4(C)[C@H]3CC[C@]12C [3α5βHO, pregnanolone hemioxylate]
inhibition of INMDA [1]: about equally effective in inhibiting INMDA | inhibition of NMDA-induced neuronal death [6]: 35±6% | reduction of NMDA-induced rise in [Ca2+]i ([7]; 5 μM NMDA): approximately 40%

CC(=O)[C@H]1CC[C@H]2[C@@H]3CC=C4C[C@@H](OC(=O)CCCC(=O)O)CC[C@]4(C)[C@H]3CC[C@]12C [PHG, pregnenolone hemiglutarate]
potentiation of INMDA [1]: more than doubling the response | exacerbation of NMDA-induced neuronal death [6]: 54±9% | potentiation of NMDA-induced Ca2+ accumulation [7]: 146±29%

CC(=O)[C@H]1CC[C@H]2[C@@H]3CC[C@@H]4C[C@@H](OS(=O)(=O)O)CC[C@]4(C)[C@H]3CC[C@]12C [3β5βS, epipregnanolone sulfate]
modulation of NMDA-induced current [9]: strong inhibitors | EC50 [2]: 79 µM | EC50 [10]: 144 µM | inhibition of NMDA-induced neuronal death [6]: 86±3%

pregnanolone formate [3α5βF]
inhibition of INMDA [1]: significantly inhibits INMDA | inhibition of NMDA-induced neuronal death [6]: do not exhibit significant neuroprotective activity | reduction of NMDA-induced rise in [Ca2+]i ([7]; 5 μM NMDA): no significant effect
